These results are taken from patent publication US8952043B2, “Benzoxepin PI3K inhibitor compounds and methods of use” (Genentech, Inc., priority 2009, dated 2015).

Holding throughout (assay type): cell-based
One test relates to MFM223. As to the kind of experiment: CellTiter-Glo cell proliferation assay, MFM223. Conditions: Homo sapiens, MFM-223, Breast, mutation status PI3K. On the procedure: (§1) The in vitro potency of Formula I exemplary compounds was measured by the cell proliferation assay, CellTiter-Glo® Luminescent Cell Viability Assay, commercially available from Promega Corp., Madison, Wis. (Example 602). This homogeneous assay method is based on the recombinant expression of Coleoptera luciferase (U.S. Pat. Nos. 5,583,024; 5,674,713; 5,700,670) and determines the number of viable cells in culture based on quantitation of the ATP present, an indicator of metabolically active cells (Crouch et al (1993) J. Immunol. Meth. 160:81-88; U.S. Pat. No. 6,602,677). The CellTiter-Glo® Assay was conducted in 96 or 384 well format, making it amenable to automated high-throughput screening (HTS) (Cree et al (1995) AntiCancer Drugs 6:398-404). The homogeneous assay procedure involves adding the single reagent (CellTiter-Glo® Reagent) directly to cells cultured in serum-supplemented medium. Cell washing, removal of medium and multiple pipetting steps are not required. The system detects as few as 15 cells/well in a 384-well format in 10 minutes after adding reagent and mixing.
(§2) Efficacy of Formula I compounds were measured by a cell proliferation assay employing the following protocol (Promega Corp. Technical Bulletin TB288; Mendoza et al (2002) Cancer Res. 62:5485-5488):
1. […]
(§3) 7. The plate was incubated at room temperature for 10 minutes to stabilize the luminescence signal.
(§4) 8. Luminescence was recorded and reported in graphs as RLU=relative luminescence units.
(§5) Alternatively, cells were seeded at optimal density in a 96 well plate and incubated for 4 days in the presence of test compound. Alamar Blue™ was subsequently added to the assay medium, and cells were incubated for 6 hr before reading at 544 nm excitation, 590 nm emission. EC50 values were calculated using a sigmoidal dose response curve fit. […]
(§6) The anti-proliferative effects of Formula I exemplary compounds were measured by the CellTiter-Glo® Assay against various tumor cell lines, including the following: […]
A general note: Cellular ATP, detected with luciferase, serves as a proxy for viable cell number.

The next test relates to HCC1954. Briefly: CellTiter-Glo cell proliferation assay, HCC1954. Conditions: Homo sapiens, Breast, mutation status PI3K. On the procedure:
as §1, §2
1. […]
as §3, §4, §5, §6

In another test the test system is PC3. As to the kind of experiment: CellTiter-Glo cell proliferation assay, PC3. The settings on record: Homo sapiens, PC-3, Prostate, mutation status PTEN. The protocol:
as §1, §2
1. […]
as §3, §4, §5, §6

A further test relates to H2122. Briefly: CellTiter-Glo cell proliferation assay, H2122. Conditions: Homo sapiens, NCI-H2122, Lung(NSCLC), mutation status K-RAS. The protocol:
as §1, §2
1. […]
as §3, §4, §5, §6

The test system of a further test is MDA-MB-361.1. As to the kind of experiment: CellTiter-Glo cell proliferation assay, MDA-MB-361.1. Conditions: Breast, mutation status PI3K. The protocol: as §1, §2
(§7) 1. An aliquot of 100 μl of cell culture containing about 10^4 cells (PC3, Detroit562, or MDAMB361.1) in medium was deposited in each well of a 384-well, opaque-walled plate.
(§8) 2. Control wells were prepared containing medium and without cells.
(§9) 3. The compound was added to the experimental wells and incubated for 3-5 days.
(§10) 4. The plates were equilibrated to room temperature for approximately 30 minutes.
(§11) 5. A volume of CellTiter-Glo Reagent equal to the volume of cell culture medium present in each well was added.
(§12) 6. The contents were mixed for 2 minutes on an orbital shaker to induce cell lysis.
as §3, §4
(§13) Alternatively, cells were seeded at optimal density in a 96 well plate and incubated for 4 days in the presence of test compound. Alamar Blue™ was subsequently added to the assay medium, and cells were incubated for 6 hr before reading at 544 nm excitation, 590 nm emission. EC50 values were calculated using a sigmoidal dose response curve fit. […] It is commonly used as a measure of drug potency.
as §6

The test system of a further test is SKBR3. As to the kind of experiment: CellTiter-Glo cell proliferation assay, SKBR3. The settings on record: Homo sapiens, SK-BR-3, Breast, mutation status WT. The protocol: The in vitro potency of Formula I exemplary compounds was measured by the cell proliferation assay, CellTiter-Glo® Luminescent Cell Viability Assay, commercially available from Promega Corp., Madison, Wis. (Example 602). This homogeneous assay method is based on the recombinant expression of Coleoptera luciferase (U.S. Pat. Nos. 5,583,024; 5,674,713; 5,700,670) and determines the number of viable cells in culture based on quantitation of the ATP present, an indicator of metabolically active cells (Crouch et al (1993) J. Immunol. Meth. 160:81-88; U.S. Pat. No. 6,602,677). […]
Efficacy of Formula I compounds were measured by a cell proliferation assay employing the following protocol (Promega Corp. Technical Bulletin TB288; Mendoza et al (2002) Cancer Res. 62:5485-5488): […]
as §3, §4, §5

The test system of the next test is KPL4. Briefly: CellTiter-Glo cell proliferation assay, KPL4. The settings on record: Breast, mutation status PI3K. On the procedure: as §1, §2
1. […]
as §3, §4, §5, §6

The test system of the next test is AU565. Briefly: CellTiter-Glo cell proliferation assay, AU565. Conditions: Homo sapiens, Breast, mutation status WT. On the procedure: as §1, §2, §7, §8, §9, §10, §11, §12, §3, §4, §13, §6
In the next test the test system is EVSA-T. As to the kind of experiment: CellTiter-Glo cell proliferation assay, EVSA-T. The settings on record: Homo sapiens, Breast, mutation status PTEN. The protocol: as §1, §2, §7, §8, §9, §10, §11, §12, §3, §4, §13, §6
The test system of a further test is T47D. As to the kind of experiment: CellTiter-Glo cell proliferation assay, T47D. Conditions: Homo sapiens, Breast, mutation status PI3K. The protocol:
as §1, §2
1. […]
as §3, §4, §5, §6

A further test has as its system BT474. Briefly: CellTiter-Glo cell proliferation assay, BT474. The settings on record: Homo sapiens, BT-474, Breast, mutation status PI3K(amped). The protocol: as §1, §2
1. […]
as §3, §4, §5, §6

With `Cc1nc(-c2nc3c(s2)CCOc2cc(-c4cn(CCO)cn4)ccc2-3)n(C(C)C)n1` [compound 440, 2-{4-[2-(2-Isopropyl-5-methyl-2H-[1,2,4]triazol-3-yl)-4,5-dihydro-6-oxa-3-thia-1-aza-benzo[e]azulen-8-yl]-imidazol-1-yl}-ethanol], the EC50 – broadly, the concentration at which the effect is half-maximal – turned out to be 4410 nM in the test on MFM223; 1620 nM with HCC1954; 3030 nM in the test with PC3; 10000 nM in the test on H2122; 2610 nM with MDA-MB-361.1; 1730 nM in the test on SKBR3. In addition, the EC50 was determined as 338 nM with KPL4; 1240 nM in the test on AU565; 4930 nM in the test on EVSA-T; 569 nM in the test on T47D; 1630 nM in the test with BT474.
